Columns and labels:
[1] = molecular target: Non-receptor tyrosine-protein kinase TYK2 (Homo sapiens, UniProt P29597); assay: Selectivity interaction (KinomeScan (DiscoverX)) EUB0000045b TYK2
[2] = molecular target: T1, G protein-coupled receptor kinase 3 (Homo sapiens) (UniProt P35626); assay: Selectivity interaction (KinomeScan (DiscoverX)) EUB0001079a ADRBK2; details: at 1 µM
T1 sequence (whole entry): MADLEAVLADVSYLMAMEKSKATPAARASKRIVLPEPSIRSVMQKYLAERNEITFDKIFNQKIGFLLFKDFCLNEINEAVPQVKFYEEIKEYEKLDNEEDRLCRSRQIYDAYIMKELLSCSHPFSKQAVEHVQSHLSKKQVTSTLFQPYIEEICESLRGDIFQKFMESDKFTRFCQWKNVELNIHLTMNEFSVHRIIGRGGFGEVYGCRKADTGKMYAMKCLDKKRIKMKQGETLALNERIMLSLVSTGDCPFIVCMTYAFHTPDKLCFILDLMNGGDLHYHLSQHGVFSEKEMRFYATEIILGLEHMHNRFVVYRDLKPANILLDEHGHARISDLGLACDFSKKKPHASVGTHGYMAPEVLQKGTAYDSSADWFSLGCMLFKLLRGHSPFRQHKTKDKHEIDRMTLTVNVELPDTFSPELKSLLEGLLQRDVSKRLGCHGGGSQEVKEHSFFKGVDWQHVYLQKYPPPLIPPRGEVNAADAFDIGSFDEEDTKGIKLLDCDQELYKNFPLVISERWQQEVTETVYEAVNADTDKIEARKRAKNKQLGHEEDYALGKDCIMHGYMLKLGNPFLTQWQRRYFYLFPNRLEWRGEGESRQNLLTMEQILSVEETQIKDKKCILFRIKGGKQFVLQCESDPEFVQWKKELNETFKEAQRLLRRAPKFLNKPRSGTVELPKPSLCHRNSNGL

[3] = molecular target: Ribosomal protein S6 kinase alpha-2 (Homo sapiens) (UniProt Q15349); assay: Selectivity interaction (KinomeScan (DiscoverX)) EUB0001049a RPS6KA2; details: at 1 µM
Ribosomal protein S6 kinase alpha-2 (Homo sapiens), sequence (Q15349 whole entry): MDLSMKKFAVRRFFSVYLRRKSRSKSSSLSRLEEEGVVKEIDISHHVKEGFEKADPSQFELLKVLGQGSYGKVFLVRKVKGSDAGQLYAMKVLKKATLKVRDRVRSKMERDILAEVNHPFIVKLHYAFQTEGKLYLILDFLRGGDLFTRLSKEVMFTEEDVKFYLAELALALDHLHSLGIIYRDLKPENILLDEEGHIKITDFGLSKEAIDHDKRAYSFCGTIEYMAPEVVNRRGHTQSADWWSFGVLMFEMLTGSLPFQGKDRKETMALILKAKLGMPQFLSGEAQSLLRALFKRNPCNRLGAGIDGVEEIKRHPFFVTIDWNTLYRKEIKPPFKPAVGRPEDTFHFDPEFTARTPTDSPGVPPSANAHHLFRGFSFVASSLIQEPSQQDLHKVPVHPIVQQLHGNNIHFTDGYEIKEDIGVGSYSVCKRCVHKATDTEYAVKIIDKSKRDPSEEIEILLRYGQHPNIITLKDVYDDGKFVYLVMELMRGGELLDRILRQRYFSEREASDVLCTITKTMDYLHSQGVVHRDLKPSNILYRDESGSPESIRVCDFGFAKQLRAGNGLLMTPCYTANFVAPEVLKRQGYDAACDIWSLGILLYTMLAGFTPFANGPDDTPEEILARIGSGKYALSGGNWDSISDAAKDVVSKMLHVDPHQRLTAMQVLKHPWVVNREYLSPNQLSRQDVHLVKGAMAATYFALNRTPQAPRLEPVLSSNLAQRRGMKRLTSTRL

[4] = molecular target: T2, Lymphokine-activated killer T-cell-originated protein kinase (Homo sapiens) (UniProt Q96KB5); assay: Selectivity interaction (ProQinase) EUB0000171b PBK
T2 sequence (whole entry): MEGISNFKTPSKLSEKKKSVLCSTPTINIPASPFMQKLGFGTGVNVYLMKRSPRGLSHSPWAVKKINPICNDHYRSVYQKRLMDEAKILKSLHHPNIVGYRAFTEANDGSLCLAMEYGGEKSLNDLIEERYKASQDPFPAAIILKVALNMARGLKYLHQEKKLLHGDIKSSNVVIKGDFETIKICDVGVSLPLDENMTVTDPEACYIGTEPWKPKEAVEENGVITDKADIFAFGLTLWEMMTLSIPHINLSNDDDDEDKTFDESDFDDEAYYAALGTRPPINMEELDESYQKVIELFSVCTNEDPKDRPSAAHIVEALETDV

[5] = molecular target: T3, Histone-lysine N-methyltransferase EHMT1 (Homo sapiens) (UniProt Q9H9B1); assay: Selectivity interaction (Methyltransferase screen (Scintillation proximity assays)) EUB0000255b EHMT1
T3 sequence (whole entry): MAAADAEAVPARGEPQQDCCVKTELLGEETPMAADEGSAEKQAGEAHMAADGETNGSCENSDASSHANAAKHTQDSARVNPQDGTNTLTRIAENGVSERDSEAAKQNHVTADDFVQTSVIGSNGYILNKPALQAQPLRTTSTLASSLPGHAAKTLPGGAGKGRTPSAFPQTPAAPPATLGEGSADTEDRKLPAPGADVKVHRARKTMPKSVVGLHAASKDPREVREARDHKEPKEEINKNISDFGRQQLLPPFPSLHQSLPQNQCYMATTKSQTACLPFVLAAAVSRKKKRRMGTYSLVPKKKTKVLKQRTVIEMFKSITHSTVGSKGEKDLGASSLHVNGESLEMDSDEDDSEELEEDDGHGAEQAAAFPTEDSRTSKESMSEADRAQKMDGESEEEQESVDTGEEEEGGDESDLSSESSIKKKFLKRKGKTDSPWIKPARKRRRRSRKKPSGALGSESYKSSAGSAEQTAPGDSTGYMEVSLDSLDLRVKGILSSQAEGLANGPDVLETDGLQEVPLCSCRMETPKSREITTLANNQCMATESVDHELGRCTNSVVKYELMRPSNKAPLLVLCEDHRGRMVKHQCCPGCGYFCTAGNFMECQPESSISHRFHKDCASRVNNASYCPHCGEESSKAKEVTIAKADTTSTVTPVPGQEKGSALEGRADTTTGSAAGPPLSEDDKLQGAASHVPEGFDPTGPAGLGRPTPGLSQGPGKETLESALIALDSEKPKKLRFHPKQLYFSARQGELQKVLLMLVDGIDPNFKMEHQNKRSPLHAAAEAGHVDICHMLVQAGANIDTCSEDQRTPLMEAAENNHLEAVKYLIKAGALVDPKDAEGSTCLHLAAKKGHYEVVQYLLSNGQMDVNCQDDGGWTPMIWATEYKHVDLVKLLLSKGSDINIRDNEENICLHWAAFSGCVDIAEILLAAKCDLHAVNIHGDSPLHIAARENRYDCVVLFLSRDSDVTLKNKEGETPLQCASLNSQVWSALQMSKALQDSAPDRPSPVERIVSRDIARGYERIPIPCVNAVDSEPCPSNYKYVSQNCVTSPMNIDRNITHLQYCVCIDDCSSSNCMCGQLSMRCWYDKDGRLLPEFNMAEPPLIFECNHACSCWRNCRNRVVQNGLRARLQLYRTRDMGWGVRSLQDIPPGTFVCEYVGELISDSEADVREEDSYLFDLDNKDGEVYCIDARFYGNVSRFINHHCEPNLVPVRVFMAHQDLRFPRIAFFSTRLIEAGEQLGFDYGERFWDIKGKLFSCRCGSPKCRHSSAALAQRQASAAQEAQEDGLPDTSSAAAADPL

[6] = molecular target: Glycogen synthase kinase-3 beta (Homo sapiens, UniProt P49841); assay: Selectivity interaction (KinomeScan (DiscoverX)) EUB0000607a GSK3B; details: at 10 µM
Glycogen synthase kinase-3 beta, sequence (P49841 whole entry, looked up): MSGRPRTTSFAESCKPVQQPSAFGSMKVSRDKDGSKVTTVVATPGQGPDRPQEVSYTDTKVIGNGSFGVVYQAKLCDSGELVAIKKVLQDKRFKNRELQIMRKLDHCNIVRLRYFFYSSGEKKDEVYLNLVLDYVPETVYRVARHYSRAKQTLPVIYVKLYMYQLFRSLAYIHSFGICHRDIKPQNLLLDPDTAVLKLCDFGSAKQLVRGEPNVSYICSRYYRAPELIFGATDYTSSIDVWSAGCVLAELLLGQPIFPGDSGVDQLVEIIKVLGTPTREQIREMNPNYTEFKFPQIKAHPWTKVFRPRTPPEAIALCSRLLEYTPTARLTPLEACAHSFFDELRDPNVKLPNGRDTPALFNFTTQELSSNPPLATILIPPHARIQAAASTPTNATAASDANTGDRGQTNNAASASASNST

Non-receptor tyrosine-protein kinase TYK2, sequence (P29597 whole entry): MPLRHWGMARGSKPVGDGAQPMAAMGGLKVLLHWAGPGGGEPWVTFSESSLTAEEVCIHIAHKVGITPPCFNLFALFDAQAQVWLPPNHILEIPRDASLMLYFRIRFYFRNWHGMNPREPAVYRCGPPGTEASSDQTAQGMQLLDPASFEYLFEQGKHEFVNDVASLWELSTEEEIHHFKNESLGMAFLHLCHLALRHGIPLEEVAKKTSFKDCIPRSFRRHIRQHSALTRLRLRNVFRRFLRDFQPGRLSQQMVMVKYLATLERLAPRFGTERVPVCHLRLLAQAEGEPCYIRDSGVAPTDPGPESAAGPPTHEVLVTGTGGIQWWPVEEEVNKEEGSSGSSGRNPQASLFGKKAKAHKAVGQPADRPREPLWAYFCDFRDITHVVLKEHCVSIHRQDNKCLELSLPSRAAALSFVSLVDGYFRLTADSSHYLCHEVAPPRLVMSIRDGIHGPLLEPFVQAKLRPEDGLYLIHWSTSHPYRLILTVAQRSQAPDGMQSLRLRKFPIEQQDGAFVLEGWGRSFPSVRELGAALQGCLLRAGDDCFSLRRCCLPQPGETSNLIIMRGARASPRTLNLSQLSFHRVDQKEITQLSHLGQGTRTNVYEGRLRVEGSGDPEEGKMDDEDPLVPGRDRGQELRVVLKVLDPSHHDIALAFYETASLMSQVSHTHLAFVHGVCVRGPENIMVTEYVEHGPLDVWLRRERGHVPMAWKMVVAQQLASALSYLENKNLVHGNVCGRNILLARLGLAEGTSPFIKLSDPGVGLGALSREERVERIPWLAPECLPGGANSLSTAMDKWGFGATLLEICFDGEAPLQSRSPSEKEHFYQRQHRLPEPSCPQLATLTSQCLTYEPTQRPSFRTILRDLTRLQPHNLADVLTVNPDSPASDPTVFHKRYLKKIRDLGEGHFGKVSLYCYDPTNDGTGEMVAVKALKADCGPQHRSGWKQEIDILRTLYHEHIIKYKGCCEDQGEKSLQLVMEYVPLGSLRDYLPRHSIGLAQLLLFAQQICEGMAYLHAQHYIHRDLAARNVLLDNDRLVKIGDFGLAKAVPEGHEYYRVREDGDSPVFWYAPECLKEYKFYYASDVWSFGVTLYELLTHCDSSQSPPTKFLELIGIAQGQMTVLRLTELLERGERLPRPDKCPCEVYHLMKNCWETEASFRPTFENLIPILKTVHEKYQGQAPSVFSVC

C=CC(=O)Nc1cc(-n2c(=O)ccc3cnc4ccc(-c5ccc(NS(C)(=O)=O)cc5)cc4c32)ccc1C
% of control ([1]; at 1 µM): 100% | % of control ([1]; at 10 µM): 100%

Nc1cnc(N2CCc3cc(S(=O)(=O)Nc4c(F)cc(Cl)cc4F)cc(N4CCCC4=O)c32)nc1 [TP-020n]
% of control [2]: 100%

COc1cc(Nc2nc(C)cc(-c3cnn4nc(OC)ccc34)n2)cc(C(F)(F)F)c1
% of control [3]: 93%

C=CC(=O)Nc1cccc(C(=O)Nc2ccc(Nc3cc(-c4[nH]c(SC)nc4C)ccn3)cc2)c1
% of control ([4]; at 1 µM): 141% | % of control ([4]; at 5 µM): 89%

COCCN1CCC(c2cc(CN(C)C(=O)c3cccc(Oc4ccccc4)c3)ccn2)CC1
% activity ([5]; at 1 µM): > 95% | % activity ([5]; at 10 µM): > 90%

CNC(=O)Nc1ccc(-c2nc(N3CC4CCC(C3)O4)c3cnn(C4CCC5(CC4)OCCO5)c3n2)cc1
% of control [6]: 69%

Reference: ChEMBL document CHEMBL5465560, “Selectivity Literature for EUbOPEN Chemogenomic Library” (2024)
